Results reported in patent publication US10975087B2, “Solid forms of tetrahydropyranyl amino-pyrrolopyrimidinone compounds” (ArQule, Inc., priority 2018, dated 2021).
Several values for one entry are separate records, joined by “and”; a condition that tells them apart may be missing. Equal entries are not always repeated. Entries after “also recorded” stand apart in the source; their conditions may differ.

Legend:
Assay type in all cases: physicochemical
[1] = Form conversion under ambient or vacuum drying conditions
[2] = Accelerated storage conditions (75% RH/40° C. for 72 hours), XRPD
[3] = Hydration studies in water/acetone mixtures; details: for Hydration study result (solid by XRPD): 5 days; for solid obtained in hydration study: the other experiments (remaining water contents/temperatures)
Experimental: Hydration experiments were performed at 25° C. and 50° C. in water/acetone mixtures with the following water content (volume %): 2%, 5%, and 20%. The samples were prepared by adding 250 μL of the water/acetone mixture to 15 mg of the salt sample. The samples were stirred at 25° C. or at 50° C. After 2 days, the samples were inspected for the presence of solid. If solid was not observed, additional salt material was added to the dissolved samples. Samples were stirred for an additional 3 days. After 5 days, samples were filtered and the solid obtained was analyzed by XRPD.

[4] = Dynamic vapor sorption (DVS); details: for Post-DVS XRPD analysis (form): after exposure to elevated humidity; for moisture uptake by DVS: at 90% RH
Experimental: Approximately 10-20 mg of sample was placed into a mesh vapor sorption balance pan and loaded into a DVS-1 dynamic vapor sorption balance by Surface Measurement Systems. […] After completion of the sorption cycle, the sample was dried using the same procedure to 0% RH and then a second sorption cycle back to 40% RH. Two cycles were performed. The weight change during the sorption/desorption cycles were plotted, allowing for the hygroscopic nature of the sample to be determined. XRPD analysis may be then carried out on any solid retained.

[5] = 7 day stability testing, open vials at 40° C./75% RH, ambient and 80° C.; details: for XRPD analysis after storage for 1 week: 80° C., and ambient temperature
[6] = Karl Fischer coulometric titration (KF) water content
Experimental: Approximately 10-30 mg of solid material was accurately weighed into a vial. The solid was then manually introduced into the titration cell of a Mettler Toledo C30 Compact Titrator. The vial was back-weighed after the addition of the solid and the weight of the added solid entered on the instrument. Titration was initiated once the sample had fully dissolved in the cell. The water content was calculated automatically by the instrument as a percentage and the data printed.

[7] = Salt disproportionation studies (slurry in deionized water)
Experimental: Samples of salts described herein were prepared for disproportionation studies. Approximately 15 mg of the salt material was suspended in 4 mL of deionized water at ambient temperature (ca. 22° C.). The slurry of the salt was shaken at ambient temperature and analyzed after: 1 h, 24 h, and 48 h. Each sample was filtered using a centrifuge filter. The solid was analyzed by XRPD. pH measurements were performed for the solution (three pH measurements were carried out for each sample and the average pH was calculated).

[8] = Thermodynamic solubility pH measurements; details: for XRPD after thermodynamic solubility studies: respective buffer; for Solubility (mg/mL): Input Solvent pH 6.5, 25° C.
Experimental: After 2 hours at 25° C., the pH of each slurry was measured and the pH was adjusted, where required. After 24 hours at 25° C., the pH of each slurry was measured and the pH was adjusted, where required. After 48 hours at 25° C., the slurries were separated by centrifugation. The solids were analyzed by XRPD, while the pH of the separated liquors were also measured.

[9] = 2% and 5% water in acetone, 25° C.
[10] = 2% water in water/acetone, 25° C., Form = form of the same salt
[11] = 2% water in water/acetone, 50° C., Form = form of the same salt
[12] = 5% water in water/acetone, 25° C., Form = form of the same salt
[13] = 5% water in water/acetone, 50° C., Form = form of the same salt
[14] = 20% water in water/acetone, 25° C.
[15] = 20% water in water/acetone, 50° C.
[16] = Input Solvent Water, 25° C., 48 hours
[17] = Input Solvent pH 1, 25° C., 48 hours
[18] = Input Solvent pH 4.5, 25° C., 48 hours

Cl.O=C(c1ccc(Oc2ccccc2)cc1Cl)c1c[nH]c2ncnc(N[C@@H]3CC[C@@H](CO)OC3)c12 [hydrochloride Form 1]
form conversion under ambient conditions ([1]; ambient conditions): gradually converts to hydrochloride Form 2

O=S(=O)(O)c1cccc2c(S(=O)(=O)O)cccc12
stability under accelerated storage conditions (XRPD) [2]: decreased crystallinity

O=C(O)C(=O)O.O=C(c1ccc(Oc2ccccc2)cc1Cl)c1c[nH]c2ncnc(N[C@@H]3CC[C@@H](CO)OC3)c12 [oxalate Form 3]
stability under accelerated storage conditions (XRPD) [2]: stable

O=C(c1ccc(Oc2ccccc2)cc1Cl)c1c[nH]c2ncnc(N[C@@H]3CC[C@@H](CO)OC3)c12.O=P(O)(O)O [phosphate Form 1]
solid obtained in hydration study (XRPD) [3, 9]: recovered | solid obtained in hydration study (XRPD) ([3]; 2% water in acetone, 50° C.): potentially new form | Hydration study result (solid by XRPD) [3, 10]: Form 1 | Hydration study result (solid by XRPD) [3, 11]: Form 1 | Hydration study result (solid by XRPD) [3, 12]: Form 1 | Hydration study result (solid by XRPD) [3, 13]: Form 6 | Hydration study result (solid by XRPD) [3, 14]: Gum | Hydration study result (solid by XRPD) [3, 15]: Gum | solid obtained in hydration study [3]: gum | Post-DVS XRPD analysis (form) [4]: no change in form from the input material | moisture uptake by DVS [4]: ca. 3.2% | XRPD analysis after storage for 1 week ([5]; 40° C./75% RH, 1 week): no change in form from the input material | KF moisture (water) content [6]: 3.74% | XRPD after salt disproportionation study, 48 hours ([7]; 48 hours): no change from the input material | XRPD after thermodynamic solubility studies ([8]; 25° C., 48 hours): no change from the input material | stability under accelerated storage conditions (XRPD) [2]: stable

O=C(c1ccc(Oc2ccccc2)cc1Cl)c1c[nH]c2ncnc(N[C@@H]3CC[C@@H](CO)OC3)c12.O=S(=O)(O)c1ccccc1 [besylate Form 1]
solid obtained in hydration study (XRPD) [3, 9]: recovered | Hydration study result (solid by XRPD) [3, 10]: Form 1 | Hydration study result (solid by XRPD) [3, 11]: Form 1 | Hydration study result (solid by XRPD) [3, 12]: Gum | Hydration study result (solid by XRPD) [3, 13]: Gum | Hydration study result (solid by XRPD) [3, 14]: Gum | Hydration study result (solid by XRPD) [3, 15]: Gum | solid obtained in hydration study [3]: gum | Post-DVS XRPD analysis (form) [4]: no change in form from the input material | XRPD analysis after storage for 1 week ([5]; 40° C./75% RH, 1 week): no change in form from the input material | Purity after 1 week (%) ([5]; 40° C./75% RH, open vials, 1 week): 97.8% | Purity after 1 week (%) ([5]; 80° C., open vials, 1 week): 97.4% | Purity after 1 week (%) ([5]; Ambient, open vials, 1 week): 97.4% | T = 0 purity (%) ([5]; T = 0, before storage): 97.4% | area % purity and form changes after 1 week ([5]; ambient, 40° C./75% RH and 80° C., open vials, 1 week): no decrease in area % purity or form changes | KF moisture (water) content [6]: 0.24% and 2.0% | XRPD after salt disproportionation study, 24 hours [7]: gel-like, amorphous solid | XRPD after salt disproportionation study, 48 hours ([7]; 48 hours): staying partially crystalline; also recorded: no change from the input material | pH - 2 Hours at 25° C. ([8]; Input Solvent Water): 1.96 | pH - 24 Hours at 25° C. ([8]; Input Solvent Water): 1.68 | pH - 48 Hours at 25° C. ([8]; Input Solvent Water): 1.84 | Solubility [8, 16]: 200 µg/mL | pH - 2 Hours at 25° C. ([8]; Input Solvent pH 1): 0.19 | pH - 24 Hours at 25° C. ([8]; Input Solvent pH 1): 0.37 | pH - 48 Hours at 25° C. ([8]; Input Solvent pH 1): 1.07 | Solubility [8, 17]: 200 µg/mL | pH - 2 Hours at 25° C. ([8]; Input Solvent pH 4.5): 4.20 | pH - 24 Hours at 25° C. ([8]; Input Solvent pH 4.5): 3.80 | pH - 48 Hours at 25° C. ([8]; Input Solvent pH 4.5): 3.82 | Solubility [8, 18]: <100 µg/mL | pH - 2 Hours at 25° C. ([8]; Input Solvent pH 6.5): 3.31 | pH - 24 Hours at 25° C. ([8]; Input Solvent pH 6.5): 2.51 | pH - 48 Hours at 25° C. ([8]; Input Solvent pH 6.5): 3.26 | Solubility (mg/mL) ([8]; 48 hours): <LOD | XRPD after thermodynamic solubility studies ([8]; 25° C., 48 hours): poorly crystalline; also recorded: no change from the input material | stability under accelerated storage conditions (XRPD) [2]: stable

Br.O=C(c1ccc(Oc2ccccc2)cc1Cl)c1c[nH]c2ncnc(N[C@@H]3CC[C@@H](CO)OC3)c12 [hydrobromide Form 2]
Post-DVS XRPD analysis (form) [4]: no change in form from the input material | moisture uptake by DVS [4]: ca. 2.4% | XRPD analysis after storage for 1 week ([5]; 40° C./75% RH, 1 week): no change in form from the input material | KF moisture (water) content [6]: 1.97% | XRPD after salt disproportionation study, 24 hours [7]: partially crystalline | XRPD after salt disproportionation study, 48 hours ([7]; 48 hours): staying hydrobromide Form 2 | measured pH after slurrying in water ([7]; 48 hours): 1.86 | pH - 2 Hours at 25° C. ([8]; Input Solvent Water): 1.86 | pH - 24 Hours at 25° C. ([8]; Input Solvent Water): 1.34 | pH - 48 Hours at 25° C. ([8]; Input Solvent Water): 1.86 | Solubility [8, 16]: 500 µg/mL | pH - 2 Hours at 25° C. ([8]; Input Solvent pH 1): 0.27 | pH - 24 Hours at 25° C. ([8]; Input Solvent pH 1): 0.40 | pH - 48 Hours at 25° C. ([8]; Input Solvent pH 1): 0.78 | Solubility [8, 17]: <100 µg/mL | pH - 2 Hours at 25° C. ([8]; Input Solvent pH 4.5): 3.97 | pH - 24 Hours at 25° C. ([8]; Input Solvent pH 4.5): 3.62 | pH - 48 Hours at 25° C. ([8]; Input Solvent pH 4.5): 3.84 | Solubility [8, 18]: <100 µg/mL | pH - 2 Hours at 25° C. ([8]; Input Solvent pH 6.5): 3.53 | pH - 24 Hours at 25° C. ([8]; Input Solvent pH 6.5): 2.61 | pH - 48 Hours at 25° C. ([8]; Input Solvent pH 6.5): 3.44 | Solubility (mg/mL) ([8]; 48 hours): <LOD | XRPD after thermodynamic solubility studies, pH 1 ([8]; pH 1, 25° C., 48 hours): hydrobromide Form 1 and 2 are observed | XRPD after thermodynamic solubility studies, water and pH 4.5 and 6.5 ([8]; water and pH 4.5 and 6.5, 25° C., 48 hours): poorly crystalline

Cl.O=C(c1ccc(Oc2ccccc2)cc1Cl)c1c[nH]c2ncnc(N[C@@H]3CC[C@@H](CO)OC3)c12 [hydrochloride Form 2]
stability under accelerated storage conditions (XRPD) [2]: decreased crystallinity

O=C(O)C(=O)O.O=C(c1ccc(Oc2ccccc2)cc1Cl)c1c[nH]c2ncnc(N[C@@H]3CC[C@@H](CO)OC3)c12 [oxalate Form 1]
form conversion under vacuum drying conditions ([1]; vacuum drying): converts to oxalate Form 5

O=C(O)/C=C\C(=O)O.O=C(c1ccc(Oc2ccccc2)cc1Cl)c1c[nH]c2ncnc(N[C@@H]3CC[C@@H](CO)OC3)c12 [maleate Form 1]
stability under accelerated storage conditions (XRPD) [2]: stable

Br.O=C(c1ccc(Oc2ccccc2)cc1Cl)c1c[nH]c2ncnc(N[C@@H]3CC[C@@H](CO)OC3)c12 [hydrobromide Form 1]
solid obtained in hydration study (XRPD) [3, 9]: recovered | solid obtained in hydration study (XRPD) ([3]; 2% water in acetone, 50° C.): potentially new form | Hydration study result (solid by XRPD) [3, 10]: Form 1 | Hydration study result (solid by XRPD) [3, 11]: low crystallinity | Hydration study result (solid by XRPD) [3, 12]: Form 1 | Hydration study result (solid by XRPD) [3, 13]: Gum | Hydration study result (solid by XRPD) [3, 14]: Gum | Hydration study result (solid by XRPD) [3, 15]: Gum | solid obtained in hydration study [3]: gum | Post-DVS XRPD analysis (form) [4]: no change in form from the input material | moisture uptake by DVS [4]: ca. 7.0% | XRPD analysis after storage for 1 week ([5]; 40° C./75% RH, 1 week): no change in form from the input material | KF moisture (water) content [6]: 7.39% | XRPD after salt disproportionation study, 48 hours ([7]; 48 hours): no change from the input material | XRPD after thermodynamic solubility studies ([8]; 25° C., 48 hours): no change from the input material | stability under accelerated storage conditions (XRPD) [2]: stable
